From patent publication US12447242B2, “Hemostatic devices and methods of use” (MEDTRONIC INC., priority 2016, dated 2025)

Assays:
[1] = tested on: myofibroblast formation; conditions: Ajmal et al. (2003); cited from earlier work
[2] = stability of rifampin and minocycline in PBS with and without tranexamic acid (Example 14); assay type: physicochemical
[3] = in vitro elution of rifampin and minocycline from p22-27.5 polymers with TXA in release media (Example 15); assay type: physicochemical; conditions: PBS pH 7.4 without or with TXA (0.05 mg/mL, 5 mg/mL) in the release media, over 25 hours
[4] = time to reach plasma concentrations; assay type: in vivo; conditions: given preoperatively
[5] = tested on: blood; assay: time to induce blood clotting in vitro, different hemostatic agents (Example 18); assay type: biochemical; conditions: 1.2 mg of TXA alone
Description: Tests were conducted to compare the time required for different hemostatic agents to induce blood clotting in vitro versus the time required to induce blood clotting in vitro when no hemostatic agent is administered. In particular, the time required to induce blood clotting was plotted for blood alone, TYRX, Surgicel, TYRX with 1.6 mg of TXA, 1.2 mg of TXA alone, and TYRX with 200 mg of TXA. In this example, TYRX refers to a Glycoprene mesh that is coated with P22-27.5 (a polymer in the P22-X family) containing Rifampin and Minocycline.

[6] = tested on: blood; assay: time to induce blood clotting in vitro in the presence of TYRX (Example 17); assay type: biochemical; design: dose or concentration left out as unconfirmed; conditions: higher amounts of TXA
Description: Tests were conducted to compare the time required to induce blood clotting in vitro when different amounts of hemostatic agent is administered in the presence of TYRX (degradable mesh coated with P22-27.5 containing rifampin and minocycline), as shown in FIG. 24.

## O=S(=O)([O-])CCS.[Na+] [MESNA, sodium 2-mercaptoethane sulfonate]
[1]
  myofibroblast formation: diminish myofibroblast formation

## CO[C@H]1/C=C/O[C@@]2(C)Oc3c(C)c(O)c4c(O)c(c(/C=N/N5CCN(C)CC5)c(O)c4c3C2=O)NC(=O)/C(C)=C\C=C\[C@H](C)[C@H](O)[C@@H](C)[C@@H](O)[C@@H](C)[C@H](OC(C)=O)[C@@H]1C [rifampin]
[2]; rifampin and minocycline in PBS, regardless of the temperature (RT or 37° C.)
  percentage area of rifampin, mixtures with versus without tranexamic acid: substantially the same
[3]
  elution rate from p22-27.5 polymers: not affected

## NC[C@H]1CC[C@H](C(=O)O)CC1 [tranexamic acid]
[4]
  time to reach plasma concentrations: 5 to 15 min
[2]; PBS, RT and 37° C.
  effect on the stability of rifampin and minocycline: does not negatively affect
[5]
  time to induce blood clotting in vitro: about 19 minutes
[6]
  clotting time: increased
